We go through five compounds from paper PMC12013085, “Peptides targeting RAB11A–FIP2 complex inhibit HPIV3, RSV, and IAV replication as broad-spectrum antivirals” (Cell & Bioscience, 2025).

One may read the IC50 as the point on the concentration scale where inhibition reaches its midpoint. For orientation: CC50 means the concentration giving 50% cytotoxicity. The low end stands for greater toxicity to the cells, the high end for lower toxicity to the cells.

Like-named read-outs stand apart in the source and are kept apart here.

The test system of data set [1] is HPIV3. Briefly: Late-stage HPIV3 replication with cytoskeleton inhibitors (TCID50, RT-qPCR, WB). Conditions: HeLa cells infected 18 h, then inhibitor for 6 h; for viral RNA synthesis and protein expression levels: RT-qPCR and WB; for HPIV3 virions in the supernatant / intracellular progeny virus particles: TCID50 at 24 hpi. On the technique in general: Quantitative PCR measures a nucleic acid by following its amplification.
Method: To investigate the role of the cytoskeleton in the later stages of infection, HeLa cells were infected with HPIV3 for 18 h before being treated with the inhibitors for an additional 6 h.
A–D Impact of cytoskeleton inhibitors on HPIV3 replication. HeLa cells infected with HPIV3 for 18 h were treated with Nocodazole (NCZ) or Cytochalasin D (Cyto D). At 24 h post infection (hpi), the virions released in the cell supernatant (A) and the quantity of intracellular progeny virus particles (B) were determined by TCID50 assays. Cells were collected for RT-qPCR analysis of intracellular viral RNA (C), and Western Blot (WB) analysis of intracellular viral protein (D). […] All experiments were independently repeated at least twice with reproducible results. Statistical significance (*p < 0.05, **p < 0.01, ***p < 0.001) was determined by two-sided unpaired t test. Data are means ± SEM

The test system of another data set is HPIV3 VLPs in 293T cells. Briefly: HPIV3 VLP budding and plasma membrane fraction assay, WB. The format is cell-based. Conditions: 293T cells transfected with N, P, M plasmids 30 h, inhibitor for 6 h. On the procedure:
Data are presented as means ± SEM
The cell lysates were prepared as described for the Western blot (WB) analysis. The supernatant was harvested and clarified by centrifugation at 12,000×g for 5 min. Subsequently, the supernatant was pelleted through a 20% sucrose cushion at 4 °C at 35,000 rpm for 2 h. The VLP pellets obtained were resuspended in PBS and boiled with SDS-PAGE loading buffer at 100 °C for 10 min. Both the cell lysates and the supernatants were then subjected to WB analysis.
293T cells, cultured in 6-cm dishes, were transfected with the indicated plasmids for 24 h. Cell collection was performed through centrifugation at 500×g for 5 min at 4 °C. Subsequently, cytosol, organelle membrane, and plasma membrane-associated proteins were extracted sequentially using the MinuteTM plasma membrane protein isolation and cell fractionation kit (INVENT), following the manufacturer's instructions.

For another data set, the system named is WSN virus. The format is in vivo, BALB/c mice. The conditions noted are these: 20 mg/kg i.p. once daily Day 0 to Day 4, positive control, n = 5.
Data set [2] deals with HPIV3.
Another data set has as its system HeLa cells. Briefly: Cellular uptake of FITC-labeled RBD, fluorescent microscopy. The format is in vitro ADME. Conditions: 5 μM FITC-labeled RBD, with or without HPIV3HA-P infection, fluorescent microscopy at 24 hpi. On the procedure: Supplementary file 13578_2025_1384_MOESM4_ESM.tif: Supplementary Material 4. Fig. S4. Cell penetration, cytotoxicity, and anti-HPIV3 activity of RBD in different cell lines. (A) Cellular uptake of FITC-labeled RBD in HeLa Cells. HeLa cells were exposed to 5 μM FITC-labeled RBD in the absence or presence of HPIV3HA-P infection, and analyzed by fluorescent microscopy at 24 hpi. RBD (green), HPIV3HA-P (red), and nuclei were stained with DAPI. Scale bar, 50 μm. (B to F) Cytotoxicity of RBD in various cell lines. Cell viability was assessed in HeLa (B), A549 (C), MK2 (D), MDCK (E) and HEp-2 cells (F) treated with increasing concentrations of […] for 24 h using the CCK-8 assay. (G to I) Antiviral efficacy of RBD against HPIV3 in different cell lines. A549 (G), MK2 (H) and MDCK (I) cells were treated with 2-fold-increasing concentrations of RBD for 24h, and viral titers in the cell supernatant were determined by TCID50. […] Data are means ± SEM.

Data set [3] concerns HeLa, A549, MK2, MDCK and HEp-2 cells. Conditions: CCK-8, 24 h treatment, in the tested cell lines (HeLa, A549, MK2, MDCK, HEp-2).

Regarding `C=C1[C@@H](C)[C@H]2[C@H](Cc3ccccc3)NC(=O)[C@]23[C@H](OC(C)=O)/C=C/[C@@](C)(O)C(=O)[C@@H](C)C/C=C/[C@H]3[C@@H]1O` [Cyto D, Cytochalasin D], in the data set on HPIV3 [1], the “viral RNA synthesis and protein expression levels” value was “unaffected”; the “HPIV3 virions in the supernatant” value is reported as “significant reduction”; the “intracellular progeny virus particles” value is given as “decrease”. Further, the VLP production result in the data set with HPIV3 VLPs in 293T cells was “substantial impact”.
`CCOC(=O)C1=C[C@@H](OC(CC)CC)[C@H](NC(C)=O)[C@@H](N)C1` [Osel, Oseltamivir, reference compound]: the “protection against morbidity and mortality, IAV (WSN)” value in the data set with WSN virus is “complete protection against morbidity and mortality”.
In the case of `N=C(N)NCCC[C@H](NC(=O)[C@H](CCCNC(=N)N)NC(=O)[C@H](CCCNC(=N)N)NC(=O)[C@H](CCC(N)=O)NC(=O)[C@H](CCCNC(=N)N)NC(=O)[C@H](CCCNC(=N)N)NC(=O)[C@H](CCCCN)NC(=O)[C@H](CCCCN)NC(=O)[C@@H](N)CCCNC(=N)N)C(=O)O` [Tat, reference compound], in the data set with HPIV3 [2] (HeLa cells, escalating concentrations, 24 hpi, WB and TCID50), the “antiviral effect on HPIV3 infection (in words)” value is reported as “no discernible antiviral effect”.
Take `COC(=O)Nc1nc2ccc(C(=O)c3cccs3)cc2[nH]1` [NCZ, Nocodazole]: in the data set on HPIV3 [1], the “viral RNA synthesis and protein expression levels” value is “unaffected”; the “HPIV3 virions in the supernatant” value is “significant reduction”; the “intracellular progeny virus particles” value is given as “decrease”. In addition, the VLP production entry in the data set on HPIV3 VLPs in 293T cells is “modest effect”.
As to “THIRELEDYIDNLLVRVMEETPSILRVPRKKRRQRRR [RBD]”, the “SI (CC50/IC50), HPIV3, A549” value in the data set with HPIV3 [2] (A549 cells) is reported as greater than 21.55. Moreover, the “SI (CC50/IC50), HPIV3, HeLa” value with HPIV3 [2] (HeLa cells) is reported as greater than 23.08. Besides, the “SI (CC50/IC50), HPIV3, MDCK” value in the data set with HPIV3 [2] (MDCK cells) was greater than 15.37. Moreover, the “SI (CC50/IC50), HPIV3, MK2” value with HPIV3 [2] (MK2 cells) is greater than 27.68. Moreover, the IC50 worked out at 3.48 µM in the data set with HPIV3 [2] (read-out: IC50, HPIV3, A549); 3.25 µM in the data set on HPIV3 [2] (read-out: IC50, HPIV3, HeLa); 4.88 µM with HPIV3 [2] (read-out: IC50, HPIV3, MDCK); 2.71 µM in the data set on HPIV3 [2] (read-out: IC50, HPIV3, MK2). The “cell penetration (cellular uptake)” value in the data set on HeLa cells is recorded as “efficiently penetrated HeLa cells”. Further, the CC50 in data set [3] was greater than 75 µM.
